{
  "source": "patent US8168628B2",
  "about": "“Conjugated psychotropic drugs and uses thereof” (Ramot at Tel-Aviv University Ltd., priority 2001, dated 2012)",
  "key": {"[1]": {"tested_on": "mice", "assay": "Catalepsy in mice (bar between two cages)", "type": "in vivo, mouse", "protocol": "Young adult male and female mice were purchased from Harlan, Israel. The animals were housed for 4-7 days under controlled conditions prior to experimentation. Experiments were conducted in a double blind procedure. In each experiment various treatment groups (about 10 animals each) were tested.\nCatalepsy in mice: The appearance of stereotypic cataleptic behavior in mice following the neuroleptic treatment was measured in two different sets of experiments.\nThe catalepsy was determined using a system of two cages and a bar therebetween. The mouse was hung in the middle of the bar, and the percentage of animals reaching the target within 2 minutes was monitored 1 hour, 2 hours and 3 hours following the treatment.\nThe catalepsy was determined using the system described hereinabove. The mouse was hung in the middle of the bar, and the time it took the animal to reach the target was measured."}, "[2]": {"tested_on": "Jurkat T lymphoma cells", "assay": "Proliferation / viability test, Jurkat T lymphoma cells", "type": "cell-based", "conditions": "Homo sapiens", "protocol": "(§1) Cell lines: Human prostate carcinoma (PC-3), human colon carcinoma (HT-29), murine melanoma (B-16) and its drug resistant subclone (B-16 MDR), mouse fibroblasts (3T3), myeloid leukemia (HL 60) and its drug resistant subclone (HL 60 MX2), endometrium cell line (MES SA) and its drug resistant subclone (MES DX5), jurkat T lymphoma and monocyte leukemia (U-937), were used in this study.\n(§2) Proliferation of cancer and normal cells: Proliferation was measured by neutral red assay or by a fluorometric assay quantitating DNA content. In the neutral red assay, the neutral red is absorbed by lysosomes, thus causing coloring of living cells. Quantitative analysis is performed by colorimetric assay (ELISA reader at 550 nm). In the fluorometric assay, alamar blue is used as a redox indicator. Alamar blue fluorescence was measured at an excitation wavelength of 544 nm and an emission wavelength of […] (FLUOstar BMG Lab Technologies, Offenburg, Germany).\n(§3) The cells were sub-cultured and the tested compounds were added thereto in increasing concentrations. The IC50 values were determined by linear regression of the survival percentage of the cells."}, "[3]": {"tested_on": "HL 60 MX2 (MDR)", "assay": "Proliferation test, HL 60 MX2 (MDR) cells", "type": "cell-based", "conditions": "Homo sapiens, HL60/MX2; linear regression of survival percentage", "protocol": "as §1, §2, §3"}, "[4]": {"tested_on": "rats", "assay": "Behavioral criteria: sedation and mobility score in rats", "conditions": "score 0-3; for Sedation score: oral, 4-6 hours after treatment", "method": "The effect of the administration of the tested compound on animals behavior was measured by evaluating the degree of animal sedation and mobility following the treatment described hereinabove, using a score of from 0 to 3. A score of 0 represents active and mobile animals, 1 represents calm and mobile animals, 2 represents calm and immobile animals and 3 represents completely ataxic and non-alert animals."}, "[5]": {"tested_on": "C6 rat glioma cells", "assay": "Chemosensitization in C6 rat glioma cells", "type": "cell-based", "protocol": "Chemosensitization: The chemosensitizing effect of perphenazine and its chemical conjugate AN 168 was measured in vitro. Various concentrations of perphenazine or AN 168 were co-administered together with a chemotherapeutic agent to either C6 rat glioma cells or to Jurkat T lymphoma cells. Cells viability and/or DNA fragmentation following treatment with either the chemotherapeutic agent, perphenazine, AN 168, a combination of the chemotherapeutic agent and perphenazine or a combination of a chemotherapeutic agent with AN 168 were measured as described hereinabove."}, "[6]": {"tested_on": "MES SA DX5 (MDR)", "assay": "Proliferation test, MES SA DX5 (MDR) cells", "type": "cell-based", "conditions": "Homo sapiens, linear regression of survival percentage", "protocol": "as §1, §2, §3"}, "[7]": {"tested_on": "3T3", "assay": "Proliferation test, 3T3 fibroblasts", "type": "cell-based", "conditions": "Mus musculus, NIH3T3; linear regression of survival percentage", "protocol": "as §1, §2, §3"}, "[8]": {"tested_on": "prolactin", "assay": "Prolactin blood level in rats (enzyme immunometric assay)", "type": "in vivo, rat", "excerpt": "Prolactin secretion: Typical neuroleptics induce hyperprolactinemia, which is frequently associated with gallactorehea and impaired gonadal and sexual function. The measurement of the circulatory plasma prolactin level was therefore used as a sensitive biochemical marker for the psychotropic activity of the known neuroleptics and the chemical conjugates of the present invention, following intraperitoneal or oral administration thereof. Thus, blood was collected from the punctured eye orbital of rats under ether anesthesia and the assay was performed using Millennia, rat prolactin enzyme immunometric assay-kit (DPC, USA)."}, "[9]": {"tested_on": "PC-3", "assay": "Proliferation test, PC-3 cells", "type": "cell-based", "conditions": "Homo sapiens, linear regression of survival percentage", "protocol": "as §1, §2, §3"}, "[10]": {"tested_on": "MES SA", "assay": "Proliferation test, MES SA cells", "type": "cell-based", "conditions": "Homo sapiens, linear regression of survival percentage", "protocol": "as §1, §2, §3"}, "[11]": {"tested_on": "HT-29", "assay": "Proliferation test, HT-29 cells", "type": "cell-based", "conditions": "Homo sapiens, linear regression of survival percentage", "protocol": "as §1, §2, §3"}, "[12]": {"tested_on": "rat myocytes", "protocol": "Toxicity: In vitro toxicity was determined by measuring the effect of the tested compounds (either known neuroleptics or the chemical conjugates of the invention) on primary cultures of neurons and whole brain neuron and glia cells obtained from the brains of neonatal mice. In vitro toxicity of perphenazine and its chemical conjugate AN 168 was also determined with rat myocytes. Acute toxicity in vivo as determined by the LD50 was evaluated on 2 months old ICR mice following the administration of a single intraperitoneal bolus-dose of drug."}, "[13]": {"assay": "Stability upon prolonged storage (NMR)", "type": "physicochemical", "conditions": "about 3 months storage; NMR spectroscopy"}, "[14]": {"tested_on": "B16 MDR", "assay": "Proliferation test, B16 MDR cells", "type": "cell-based, murine", "conditions": "Mus musculus; linear regression of survival percentage", "protocol": "as §1, §2, §3"}, "[15]": {"tested_on": "HL 60", "assay": "Proliferation test, HL 60 cells", "type": "cell-based", "conditions": "Homo sapiens, linear regression of survival percentage", "protocol": "as §1, §2, §3"}, "[16]": {"tested_on": "B16", "assay": "Proliferation test, B16 melanoma cells", "type": "cell-based, murine", "protocol": "as §1, §2, §3"}},
  "note": "Counter-ions that a name gives are not always drawn. Like-named read-outs stand apart in the source and are kept apart here.",
  "data": [
    {"smiles": "NCCCC(=O)OCCN1CCN(CCCN2c3ccccc3Sc3ccc(Cl)cc32)CC1", "note": "[AN-168, Perphenazine 4-aminobutyrate Trihydrochloride]", "values": [
      {"measurement": "catalepsy: percentage of animals reaching the target within 2 minutes", "setting": "[1]; adult male mice, 1.5 mg/kg perphenazine or equimolar dose (FIG. 7a)", "result": "substantially lower disability"},
      {"measurement": "catalepsy: time it took the animals to reach the target", "setting": "[1]; young female mice, 2.5 mg/kg perphenazine or equimolar dose, 2 and 3 hours after treatment (FIG. 7b)", "result": "much faster than the animals treated with perphenazine alone"},
      {"measurement": "IC50", "setting": "[2]; alamar blue method (FIG. 15), read-out: IC50, Jurkat T lymphoma cells viability", "result": 19, "unit": "µM"},
      {"measurement": "IC50", "setting": "[2]; linear regression of survival percentage, read-out: IC50, JURKAT", "result": 11.3, "unit": "µM"},
      {"measurement": "IC50", "setting": "[3]", "result": 18.4, "unit": "µM"},
      {"measurement": "sedation and mobility score, 30 min", "setting": "[4]; i.p., 5 mg/kg perphenazine, 7.5 mg/kg fluphenazine or equimolar conjugate, 30 min", "result": 0},
      {"measurement": "sedation and mobility score, 60 min", "setting": "[4]; i.p., 5 mg/kg perphenazine, 7.5 mg/kg fluphenazine or equimolar conjugate, 60 min", "result": 0},
      {"measurement": "sedation and mobility score, 90 min", "setting": "[4]; i.p., 5 mg/kg perphenazine, 7.5 mg/kg fluphenazine or equimolar conjugate, 90 min", "result": 1},
      {"measurement": "sedation and mobility score, 120 min", "setting": "[4]; i.p., 5 mg/kg perphenazine, 7.5 mg/kg fluphenazine or equimolar conjugate, 120 min", "result": 1},
      {"measurement": "sedation and mobility score, 180 min", "setting": "[4]; i.p., 5 mg/kg perphenazine, 7.5 mg/kg fluphenazine or equimolar conjugate, 180 min", "result": 1},
      {"measurement": "sedation and mobility score, 240 min", "setting": "[4]; i.p., 5 mg/kg perphenazine, 7.5 mg/kg fluphenazine or equimolar conjugate, 240 min", "result": 1},
      {"measurement": "Sedation score", "setting": "[4]; 3.5 mg/kg", "result": 0},
      {"measurement": "Sedation score", "setting": "[4]; 7 mg/kg", "result": 0},
      {"measurement": "Sedation score", "setting": "[4]; 14 mg/kg", "result": 1},
      {"measurement": "Sedation score", "setting": "[4]; 28 mg/kg", "result": 2},
      {"measurement": "chemosensitizing effect, co-administration with Vincistine", "setting": "[5]; 24 hours, Vincistine 30 μM, conjugate even at 5 μM (FIG. 16)", "result": "substantially enhance the cytotoxic effect thereof"},
      {"measurement": "cells viability, combined treatment of Cisplatin and AN 168", "setting": "[5]; Cisplatin 5-50 μM plus 10 and 15 μM AN 168, neutral red (FIG. 17)", "result": "rendered the cells susceptible to the chemotherapeutic drug"},
      {"measurement": "IC50", "setting": "[6]", "result": 17.2, "unit": "µM"},
      {"measurement": "IC50", "setting": "[7]", "result": 25, "unit": "µM"},
      {"measurement": "time at which prolactin blood level peaked", "setting": "[8]; i.p., measured at 0, 60 and 120 min after treatment", "result": 60, "unit": "min"},
      {"measurement": "prolactin blood level compared with perphenazine", "setting": "[8]; oral, higher dose, 0, 90, 180 min (FIG. 12)", "result": "much higher as compared with animals treated with perphenazine"},
      {"measurement": "IC50", "setting": "[9]", "result": 45.5, "unit": "µM"},
      {"measurement": "IC50", "setting": "[10]", "result": 18.2, "unit": "µM"},
      {"measurement": "IC50", "setting": "[11]", "result": "23.1 ± 9", "unit": "µM"},
      {"measurement": "decrease in cells viability", "setting": "[12]", "result": "did not cause any decrease in cells viability at all concentrations"},
      {"measurement": "stability upon prolonged storage", "setting": "[13]", "result": "slow decomposition, probably due to hydrolysis, occurred"},
      {"measurement": "IC50", "setting": "[14]", "result": "23 ± 16", "unit": "µM"},
      {"measurement": "IC50", "setting": "[15]", "result": 15.1, "unit": "µM"},
      {"measurement": "IC50", "setting": "[16]; Mus musculus, B16, linear regression of survival percentage", "result": "26.8 ± 1.8", "unit": "µM"},
      {"measurement": "effect on the proliferation of B16 murine melanoma cells", "setting": "[16]; representative experiment (FIG. 13)", "result": "relatively active as anti-proliferative drugs"}
    ]}
  ]
}
